Results taken from US20260174766A1, “COMBINATION OF MENIN INHIBITOR(S) AND IMMUNOPROTEASOME INHIBITOR(S) FOR TREATMENT OF LEUKEMIA” (Medizinische Hochschule Hannover, priority 2022, published 2026).

Test system: MLL-AF9 driven leukemia
Assay: Secondary transplantation of bone marrow from in vivo treated MLL-AF9 mice
Parameters: species or system mouse
Conditions: p<0.0001
Experimental: For induction of MLL-AF9 (MA9) driven leukemia we used established retroviral MSCV-GFP-based vectors to express MA9 in hematopoietic stem- and progenitor cells (Lineage-negative, Sca1-positive, Kit-positive [LSK] cells). In detail, bone marrow (BM) of LMP7+/+ or LMP7−/− littermates was isolated following standard procedures from 6-12-weeks-old mice. Lineage-depletion was performed using Streptavidin Particles Plus-DM (BD Biosciences, Heidelberg, Germany) and a DynaMag magnet (Thermo Fisher Scientific). Lineage-depleted cells were stained with streptavidin BV421, KIT AF647 and Sca-1 FITC or PE antibodies (all antibodies were received from Biolegend, San Diego, CA, USA) and then used for cell sorting. […] Cells were analyzed 48 hours after first infection for GFP-expression using flow cytometry and 7.5×10^4 GFP+ cells were injected into sublethally irradiated (7 Gy, single dose) primary recipient mice (C57BL/6J; females). […]
To characterize the effects of LMP7/PSMB8 inhibition in more detail, differentiation following PR-957 treatment was assessed. […] Next, the frequency of L-GMP (Lin− c-kit+ Sca1− CD34+ FcgR+) was assessed by flow cytometry, which have been described as the functionally relevant LSC population in MLL-AF9 driven leukemia. […]

**Q.** How did the “median survival of secondary recipients” value (recipients of PR-957 treated cells, control 21 days, FIG. 2G) turn out when `COc1ccc(C[C@H](NC(=O)[C@H](C)NC(=O)CN2CCOCC2)C(=O)N[C@@H](Cc2ccccc2)C(=O)[C@]2(C)CO2)cc1` [PR-957, (2S)-3-(4-methoxyphenyl)-N-[(2S)-1-[(2S)-2-methyloxiran-2-yl]-1-oxo-3-phenylpropan-2-yl]-2-[[(2S)-2-[(2-morpholin-4-ylacetyl)amino]propanoyl]amino]propanamide] was run?
**A.** The value was 39.5 days.

**Q.** What about the “leukemic cells in the peripheral blood (GFP+ WBC) of secondary recipients” value (two weeks after transplantation of bone marrow of treated mice, FIG. 2F) of the same compound?
**A.** Its value is 1.6 Gpt/L.
